From paper PMC8778314, “A New Series of Indeno[1,2-c]pyrazoles as EGFR TK Inhibitors for NSCLC Therapy” (Molecules, 2022) come the findings set out here.

Molecules are shown by their SMILES. Bounds are passed on as bounds.

Data set [1] concerns A549 human lung adenocarcinoma cells. Briefly: MTT cell viability assay, A549 cells. To be noted: A549, 72 h, read-out: IC50 (µM) A549 Cells. In general terms: Tetrazolium assays rely on reduction of a dye to a coloured formazan, in cell work by metabolically active cells.
Method: (§2) In experiments, K562 cells and PBMCs were cultured in 24-well and 96-well plates (Asahi Glass Co., Chiba, Japan) at 4 × 10^4 and 1 × 10^6 cells/mL concentrations, respectively, for 48 h. A549 cells were plated (24-well plate) at 1 × 10^4 cells/mL and incubated for 72 h (the optimal cell number was determined in our previous studies) [34, 35, 36]. The stock solutions of the compounds and erlotinib in concentrations ranging from 1 µM to 10 mM were prepared in DMSO (Wako Pure Chemical Industries, Osaka, Japan) and further diluted with fresh culture medium. The final DMSO concentration was adjusted as 1%, which had no effect on the cell viability [37].
(§3) Then, supernatants were discarded, and the formazan crystals were solubilized with a 100 μL DMSO addition. The absorbance of the solution was measured using an Infinite M1000 microplate reader (Tecan, Grödig, Austria) at a wavelength of 570 and 630 nm.
Data set [2] addresses T1, LCK (Homo sapiens, UniProt P06239).
T1 construct: purchased Promega Corporation
The data set is described as follows: Kinase selectivity profiling TK-2, LCK. Format: biochemical. To be noted: 30 µM concentration. As for the experimental part:
(§1) Manufacturer′s instructions (Promega Corporation, Madison, WI, USA) were applied for the kinase profiling assay protocol (TK-1 and TK-2) with small changes. According to this protocol, the kinase stocks in the kinase strips and their substrate stocks in the substrate strips were diluted with 95 µL of 2.5× kinase buffer and 15 µL of 100 µM ATP solutions, respectively. The kinase working stocks (2 µL), 2 µL of the ATP/substrate working stocks, and 1 µL of the tested compound solution (3–100 µM) and erlotinib solution (0.01–100 µM) or 5% DMSO solution in the 384-well plate were used for the kinase reactions. Following the 4 h of incubation at room temperature, the activity of kinases was screened by means of the ADP-Glo Kinase Assay (Promega Corporation, Madison, WI, USA) based on the manufacturer′s protocol. The Infinite M1000 microplate reader (Tecan, Grödig, Austria) was used to measure the kinase inhibitory effects of the compounds in a dose-response manner. Besides, the IC50 values of the tested compounds were determined using ImageJ software.

For data set [3], the system named is A549 cells. Briefly: Annexin V/ethidium homodimer III staining assay (apoptosis). The data set is classed as cell-based, human. The settings on record: IC50 concentrations, 15 h. The procedure:
Then, an apoptotic/necrotic cell detection kit (PromoKine, Heidelberg, Germany) was used according to manufacturer′s instructions with some modifications. Briefly, the cells were washed twice with 1× binding buffer, a staining solution containing 50 μL of 1× binding buffer, 5 μL of FITC-Annexin V solution, and 5 μL of ethidium homodimer III solution, and treated for 30 min at room temperature in a protected-light environment. After washing of cells in 1× binding buffer, cells were analyzed under a Biorevo BZ-9000 all-in-one fluorescence microscope (Keyence, Osaka, Japan). The number of apoptotic cells, late apoptotic or necrotic cells, and necrotic cells was quantified as previously described.

The target of data set [4] is T2, EGFR TK (Homo sapiens, UniProt P00533).
T2 construct: purchased Promega Corporation
T2 sequence (P00533 25-1210): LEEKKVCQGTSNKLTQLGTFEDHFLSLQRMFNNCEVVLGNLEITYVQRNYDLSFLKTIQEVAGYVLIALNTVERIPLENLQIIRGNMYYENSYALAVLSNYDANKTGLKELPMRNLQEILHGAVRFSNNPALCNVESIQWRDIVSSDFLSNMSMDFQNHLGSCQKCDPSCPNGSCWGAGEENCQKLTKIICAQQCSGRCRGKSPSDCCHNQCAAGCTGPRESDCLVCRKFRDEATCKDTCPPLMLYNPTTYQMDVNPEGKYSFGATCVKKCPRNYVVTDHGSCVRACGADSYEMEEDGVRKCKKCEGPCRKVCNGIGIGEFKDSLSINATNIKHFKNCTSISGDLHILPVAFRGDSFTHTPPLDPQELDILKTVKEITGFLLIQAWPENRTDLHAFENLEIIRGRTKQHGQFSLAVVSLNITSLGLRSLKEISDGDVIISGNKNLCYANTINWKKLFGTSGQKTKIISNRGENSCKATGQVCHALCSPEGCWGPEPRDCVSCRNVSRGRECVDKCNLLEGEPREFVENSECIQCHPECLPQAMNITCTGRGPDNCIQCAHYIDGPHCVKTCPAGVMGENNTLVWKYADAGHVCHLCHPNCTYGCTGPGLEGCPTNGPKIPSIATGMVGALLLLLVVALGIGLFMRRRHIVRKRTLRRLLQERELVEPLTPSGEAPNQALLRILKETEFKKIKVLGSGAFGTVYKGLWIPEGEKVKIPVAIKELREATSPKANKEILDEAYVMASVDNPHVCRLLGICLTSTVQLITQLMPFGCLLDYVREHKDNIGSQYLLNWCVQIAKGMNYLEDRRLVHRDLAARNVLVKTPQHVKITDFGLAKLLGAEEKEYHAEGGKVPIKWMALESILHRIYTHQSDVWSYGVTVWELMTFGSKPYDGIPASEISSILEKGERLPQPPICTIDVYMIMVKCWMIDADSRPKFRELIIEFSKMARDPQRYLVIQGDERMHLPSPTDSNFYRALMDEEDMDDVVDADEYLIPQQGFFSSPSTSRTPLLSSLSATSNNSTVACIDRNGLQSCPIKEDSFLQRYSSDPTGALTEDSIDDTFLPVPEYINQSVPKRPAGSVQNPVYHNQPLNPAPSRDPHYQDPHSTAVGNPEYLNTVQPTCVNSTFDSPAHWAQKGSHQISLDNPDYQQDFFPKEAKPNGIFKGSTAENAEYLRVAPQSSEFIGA
The data set is described as follows: EGFR TK inhibition, kinase profiling / ADP-Glo Kinase Assay. Format: biochemical. To be noted: 4 h incubation at room temperature. A general note: ADP-Glo turns the ADP formed in a reaction into a luminescent signal.
Method: Manufacturer′s instructions (Promega Corporation, Madison, WI, USA) were applied for the kinase profiling assay protocol (TK-1 and TK-2) with small changes [40, 41, 42]. […] The kinase working stocks (2 µL), 2 µL of the ATP/substrate working stocks, and 1 µL of the tested compound solution (3–100 µM) and erlotinib solution (0.01–100 µM) or 5% DMSO solution in the 384-well plate were used for the kinase reactions. Following the 4 h of incubation at room temperature, the activity of kinases was screened by means of the ADP-Glo Kinase Assay (Promega Corporation, Madison, WI, USA) based on the manufacturer′s protocol. The Infinite M1000 microplate reader (Tecan, Grödig, Austria) was used to measure the kinase inhibitory effects of the compounds in a dose-response manner. Besides, the IC50 values of the tested compounds were determined using ImageJ software.

Data set [5] concerns the target T3, HER2 (Homo sapiens, UniProt P04626).
T3 construct: purchased Promega Corporation
Briefly: Kinase selectivity profiling TK-1, HER2. Format: biochemical. To be noted: 30 µM concentration. As for the experimental part:
as §1

For data set [6], the system named is K562 chronic myelogenous leukemia (CML) cells. Briefly: MTT cell viability assay, K562 cells. To be noted: Homo sapiens, K562, 48 h, read-out: IC50 (µM) K562 Cells.
Method: as §2, §3
The test system of data set [7] is peripheral blood mononuclear cells (PBMCs). The data set is described as follows: MTT cell viability assay, PBMCs. The settings on record: for cytotoxicity towards PBMCs (in words): MTT, normal cells; for IC50: PBMC, 48 h, read-out: IC50 (µM) PBMCs.
Method: as §2, §3

T3 sequence (P04626 23-1255): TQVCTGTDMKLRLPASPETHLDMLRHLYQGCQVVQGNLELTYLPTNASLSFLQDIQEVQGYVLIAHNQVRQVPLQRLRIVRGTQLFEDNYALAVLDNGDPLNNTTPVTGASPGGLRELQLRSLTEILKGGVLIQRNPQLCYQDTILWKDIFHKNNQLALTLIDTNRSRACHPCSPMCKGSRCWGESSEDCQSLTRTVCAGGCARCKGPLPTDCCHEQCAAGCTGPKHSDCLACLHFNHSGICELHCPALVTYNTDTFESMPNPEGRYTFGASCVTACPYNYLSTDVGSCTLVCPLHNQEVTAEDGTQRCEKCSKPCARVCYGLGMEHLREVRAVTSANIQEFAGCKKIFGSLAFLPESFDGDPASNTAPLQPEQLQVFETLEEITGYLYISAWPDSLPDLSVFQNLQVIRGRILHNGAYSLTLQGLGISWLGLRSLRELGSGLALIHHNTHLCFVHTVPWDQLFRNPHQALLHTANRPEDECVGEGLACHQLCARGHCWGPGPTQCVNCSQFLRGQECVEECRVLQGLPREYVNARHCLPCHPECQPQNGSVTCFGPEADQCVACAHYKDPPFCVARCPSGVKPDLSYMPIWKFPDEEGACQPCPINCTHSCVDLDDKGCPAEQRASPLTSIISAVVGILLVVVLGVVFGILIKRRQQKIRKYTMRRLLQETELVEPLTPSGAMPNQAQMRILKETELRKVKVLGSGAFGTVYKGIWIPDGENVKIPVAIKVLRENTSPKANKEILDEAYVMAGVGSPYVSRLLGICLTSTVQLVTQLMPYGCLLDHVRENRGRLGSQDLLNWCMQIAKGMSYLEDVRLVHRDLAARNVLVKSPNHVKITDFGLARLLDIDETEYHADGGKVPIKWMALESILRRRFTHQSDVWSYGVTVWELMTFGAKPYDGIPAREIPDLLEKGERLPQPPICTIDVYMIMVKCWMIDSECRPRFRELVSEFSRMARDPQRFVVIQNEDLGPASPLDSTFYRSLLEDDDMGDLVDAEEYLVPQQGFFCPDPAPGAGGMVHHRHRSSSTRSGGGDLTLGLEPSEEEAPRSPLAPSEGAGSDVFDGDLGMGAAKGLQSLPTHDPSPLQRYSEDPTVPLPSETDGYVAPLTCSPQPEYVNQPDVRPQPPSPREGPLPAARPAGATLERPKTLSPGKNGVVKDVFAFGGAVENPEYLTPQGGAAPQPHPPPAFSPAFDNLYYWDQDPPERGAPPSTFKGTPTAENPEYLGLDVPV
T1 sequence (P06239 whole entry): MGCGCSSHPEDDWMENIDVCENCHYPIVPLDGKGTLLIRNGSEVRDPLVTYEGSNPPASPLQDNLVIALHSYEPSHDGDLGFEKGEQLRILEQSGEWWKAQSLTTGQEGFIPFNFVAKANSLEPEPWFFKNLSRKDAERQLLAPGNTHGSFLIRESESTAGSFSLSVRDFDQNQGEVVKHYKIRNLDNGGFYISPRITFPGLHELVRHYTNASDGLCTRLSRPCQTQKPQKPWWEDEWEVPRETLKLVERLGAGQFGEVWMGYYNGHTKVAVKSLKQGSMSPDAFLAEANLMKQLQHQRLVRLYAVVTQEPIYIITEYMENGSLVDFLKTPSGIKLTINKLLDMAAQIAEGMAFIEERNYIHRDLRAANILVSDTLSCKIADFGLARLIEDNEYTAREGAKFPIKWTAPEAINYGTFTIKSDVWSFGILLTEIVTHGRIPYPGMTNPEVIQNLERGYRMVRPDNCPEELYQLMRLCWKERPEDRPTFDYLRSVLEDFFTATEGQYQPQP

With `COc1cc2c(cc1Cl)Cc1c-2nn(-c2ccc(Cl)cc2)c1-c1ccc(N2CCCCC2)cc1` [Compound 3, 6-Chloro-7-methoxy-2-(4-chlorophenyl)-3-[4-(piperidin-1-yl)phenyl]-2,4-dihydroindeno[1,2-c]pyrazole], the IC50 (commonly the concentration needed to halve the response being measured) in data set [1] is above 10 µM.
On to `COc1cc2c(cc1Cl)Cc1c-2nn(-c2ccc(Br)cc2)c1-c1ccc(N2CCCCC2)cc1` [Compound 4, 6-Chloro-7-methoxy-2-(4-bromophenyl)-3-[4-(piperidin-1-yl)phenyl]-2,4-dihydroindeno[1,2-c]pyrazole], for which the melting point (as a rule, the temperature of the solid-liquid transition) fell in the range of 125 to 126 °C. Moreover, in data set [2], the “LCK inhibition compared to erlotinib” value was “more significantly than erlotinib”. Besides, the “percentage of A549 cells undergoing apoptosis” value in data set [3] is given as 56.30%. For the same molecule, the 50% inhibitory concentration (IC50) in data set [4] worked out at 17.6 µM. For the same molecule, the IC50 in data set [1] worked out at 6.13 ± 1.42 µM. In data set [5], the “HER2 inhibition compared to erlotinib” value is “more significantly than erlotinib”. The half-maximal inhibitory concentration (IC50) in data set [6] came to 2.65 ± 0.75 µM. Further, in data set [7], the “cytotoxicity towards PBMCs (in words)” value is “no significant cytotoxicity” and the IC50 came out at 19.6 ± 4.25 µM.
In turn, `COc1cc2c(cc1Cl)Cc1c-2nn(-c2ccc(S(C)(=O)=O)cc2)c1-c1ccc(N2CCCCC2)cc1` [Compound 6, 6-Chloro-7-methoxy-2-(4-(methylsulfonyl)phenyl)-3-[4-(piperidin-1-yl)phenyl]-2,4-dihydroindeno[1,2-c]pyrazole] had a melting point of 116 to 117 °C. The IC50 in data set [1] is above 10 µM.
Turning to `C#Cc1cccc(Nc2ncnc3cc(OCCOC)c(OCCOC)cc23)c1` [Erlotinib, reference compound], the “percentage of A549 cells undergoing apoptosis” value in data set [3] is listed as 53.60%. For the same molecule, the values for the IC50 in data set [1], in data set [6] and in data set [7] were 19.7 ± 3.15 µM, 29.6 ± 5.26 µM and 44.3 ± 7.84 µM, respectively.
For the molecule `COc1cc2c(cc1Cl)Cc1c-2nn(-c2ccc(C#N)cc2)c1-c1ccc(N2CCCCC2)cc1` [Compound 5, 6-Chloro-7-methoxy-2-(4-cyanophenyl)-3-[4-(piperidin-1-yl)phenyl]-2,4-dihydroindeno[1,2-c]pyrazole], the half-maximal inhibitory concentration (IC50) in data set [1] was above 10 µM.
In the case of `COc1cc2c(cc1Cl)Cc1c-2nn(-c2ccc(F)cc2)c1-c1ccc(N2CCCCC2)cc1` [Compound 2, 6-Chloro-7-methoxy-2-(4-fluorophenyl)-3-[4-(piperidin-1-yl)phenyl]-2,4-dihydroindeno[1,2-c]pyrazole], the melting point fell in the range of 188 to 190 °C. In data set [1], the IC50 was above 10 µM.
Turning to `COc1cc2c(cc1Cl)Cc1c-2nn(-c2ccccc2)c1-c1ccc(N2CCCCC2)cc1` [Compound 1, 6-Chloro-7-methoxy-2-phenyl-3-[4-(piperidin-1-yl)phenyl]-2,4-dihydroindeno[1,2-c]pyrazole], the IC50 worked out at 55.3 ± 8.68 µM in data set [4], 7.99 ± 1.84 µM in data set [1], 3.49 ± 0.92 µM in data set [6] and 95.7 ± 11.7 µM in data set [7]. In addition, the “cytotoxicity towards PBMCs (in words)” value in data set [7] is recorded as “no significant cytotoxicity”.
`COc1cc2c(cc1Cl)Cc1c-2nn(-c2ccc(C)cc2)c1-c1ccc(N2CCCCC2)cc1` [Compound 7, 6-Chloro-7-methoxy-2-(4-methylphenyl)-3-[4-(piperidin-1-yl)phenyl]-2,4-dihydroindeno[1,2-c]pyrazole] yielded a melting point of 123 to 124 °C. Besides, the midpoint of inhibition in data set [4], the IC50, lay at 46.7 ± 7.04 µM. For the same molecule, in data set [1], the 50% inhibitory concentration (IC50) is 8.67 ± 2.18 µM. For the same molecule, the concentration for half-maximal inhibition (IC50) in data set [6] was 2.76 ± 0.83 µM. In data set [7], the “cytotoxicity towards PBMCs (in words)” value was “no significant cytotoxicity” and the concentration for half-maximal inhibition (IC50) is above 100 µM.
